Test system: HL-60
Assay: Antiproliferative activity against human HL60 cells after 72 hrs by MTT assay
Format: functional, cell-based
Conditions: HL-60, 72 h

IC50: 10 nM
Structure (SMILES): CN(C)C(=S)NN=C(c1ccccn1)c1ccccn1
